Measured values from the Deep4Chem optical property database.
“And” between values parts separate entries of the source, which are not always exact repeats. Equal entries are not always repeated. Each block holds one compound with its values, some of them ahead of it.

Assay: solvent given as SMILES

Structure (SMILES): CC(C)(C)c1ccc2c(c1)c1cc(C(C)(C)C)ccc1n2-c1cc(C(=O)c2ccccc2)cc(-n2c3ccc(C(C)(C)C)cc3c3cc(C(C)(C)C)ccc32)c1
emission maximum (in Cc1ccccc1): 466.36 nm | emission maximum (in c1cc(-c2cccc(-n3c4ccccc4c4ccccc43)c2)cc(-n2c3ccccc3c3ccccc32)c1): 470.81 nm

Structure (SMILES): Cc1cc(-c2nnc(-c3c(C(C)C)cc(C(C)C)cc3C(C)C)o2)ccc1-n1c2ccccc2c2ccccc21
emission maximum (in CCO): 440 nm | emission maximum (in Cc1ccccc1): 375 nm

Structure (SMILES): CC1(C)c2ccccc2N(c2ccc(-c3nnc(-c4ccccc4)o3)cc2)c2ccccc21
emission maximum (in Cc1ccccc1): 450 nm | emission maximum (in c1ccc(-n2c(-c3c(-n4c5ccccc5c5ccccc54)cccc3-n3c4ccccc4c4ccccc43)nc3ccccc32)cc1): 455 nm

Structure (SMILES): Cc1cscc1-c1cc2c3cc(-c4cscc4C)c4nc(C(F)(F)C(F)(F)C(F)(F)F)nc5c(-c6cscc6C)cc(c6cc(-c7cscc7C)c7nc(C(F)(F)C(F)(F)C(F)(F)F)nc1c7c26)c3c45
emission maximum (in C1CCOC1): 551 nm

Structure (SMILES): COCCC1=Cc2nc1ccc1[nH]c(cc1CCOC)c1nc(c(O)cc3[nH]c2cc3CCOC)C(CCOC)=C1
emission maximum (in Cc1ccccc1): 688 nm

Structure (SMILES): CC(C)(C)c1ccc(C#Cc2c(C#Cc3ccc(C(C)(C)C)cc3)c3cccc4c(C#Cc5ccc(C(C)(C)C)cc5)c(C#Cc5ccc(C(C)(C)C)cc5)c5cccc2c5c34)cc1
emission maximum (in ClCCl): 443 nm

Structure (SMILES): COc1ccc(/C=C2\OC(=O)c3cc(N)ccc32)cc1
emission maximum (in CC#N): 450.25 nm | emission maximum (in CC(C)=O): 446.03 nm | emission maximum (in CC(C)CO): 474.83 nm | emission maximum (in CC(C)O): 481.23 nm | emission maximum (in CCCO): 482.63 nm | emission maximum (in CCO): 485.44 nm | emission maximum (in CCOC(C)=O): 445.04 nm | emission maximum (in CCOCC): 443.26 nm | emission maximum (in CO): 486.14 nm

Structure (SMILES): COc1ccc2cc(C3=[N+]4C(=Nc5c(-c6ccc7ccccc7c6)cc(-c6ccc7cc(OC)ccc7c6)n5[B-]4(F)F)C(c4ccc5ccccc5c4)=C3)ccc2c1
emission maximum (in ClCCl): 754 nm

Structure (SMILES): O=C1O[B-]2(OC1=O)OC(c1ccc3ccccc3c1)=CC(c1ccc3ccccc3c1)=[O+]2
emission maximum (in CC#N): 550 nm | emission maximum (in ClC(Cl)(Cl)Cl): 451 nm

Structure (SMILES): C[Si]1(C)c2ccc(-c3ccc(-c4cccs4)s3)cc2C=Cc2cc(-c3ccc(-c4cccs4)s3)ccc21
emission maximum (in ClCCl): 424 nm

Structure (SMILES): C[Si]1(C)C2=CC(=[N+]3CCC3)C=C(F)C2=Nc2c(F)cc(N3CCC3)cc21
emission maximum (in CCO): 719 nm

Structure (SMILES): O=Cc1ccc2nc(C#Cc3ccc(N(c4ccccc4)c4ccccc4)cc3)sc2c1
emission maximum (in Cc1ccccc1): 473 nm

Structure (SMILES): CC[n+]1ccc(/C=C/c2cc(OC)c(C=O)cc2OC)cc1
emission maximum (in C1CCOC1): 557 nm | emission maximum (in CC#N): 566 nm | emission maximum (in CN(C)C=O): 565 nm | emission maximum (in Cc1ccccc1): 554 nm | emission maximum (in ClCCl): 561 nm | emission maximum (in O): 558 nm

Structure (SMILES): COc1cc(OC)cc(C2=[O+][B-](F)(F)OC(c3cccs3)=C2)c1
emission maximum (in CCCCCC): 434.88 nm | emission maximum (in Cc1ccccc1): 502.25 nm | emission maximum (in ClCCl): 567 nm

Structure (SMILES): CC1=C(C(C)(C)C)C(C)=[N+]2C1=C(C)c1c(C)c(C(C)(C)C)c(C)n1[B-]2(F)F
emission maximum (in C1CCCCC1): 571.2 nm | emission maximum (in C1CCOC1): 566.6 nm | emission maximum (in C1COCCO1): 565.4 nm | emission maximum (in CC#N): 560.6 nm | emission maximum (in CC(C)=O): 563.6 nm | emission maximum (in CC(C)CC(C)(C)C): 569 nm | emission maximum (in CCC(C)C): 569 nm | emission maximum (in CCCC(C)=O): 562.6 nm | emission maximum (in CCCCCC): 567.8 nm | emission maximum (in CCCCCCCCO): 565 nm | emission maximum (in CCCCCCO): 565.4 nm | emission maximum (in CCCCO): 566.6 nm | emission maximum (in CCCCOC(C)=O): 564.6 nm | emission maximum (in CCCO): 564.6 nm | emission maximum (in CCO): 563.2 nm | emission maximum (in CCOC(C)=O): 562.4 nm | emission maximum (in CCOCC): 565.4 nm | emission maximum (in CN(C)C=O): 565.4 nm | emission maximum (in CNC=O): 560.6 nm | emission maximum (in CO): 561.2 nm | emission maximum (in COC(C)=O): 561.8 nm | emission maximum (in OCC(F)(F)F): 561.2 nm

Structure (SMILES): CC1=C(Cl)C(/C=C/c2ccc3c(c2)c2ccccc2n3Cc2cn(CCC[P+](c3ccccc3)(c3ccccc3)c3ccccc3)nn2)=[N+]2C1=C(c1ccc(I)cc1)c1c(C)c(Cl)c(C)n1[B-]2(F)F
emission maximum (in CCO): 650 nm

Structure (SMILES): CC(C)(C)c1cccc2c1oc1nc3oc4ccc(-n5c6ccccc6c6ccccc65)cc4c3cc12
emission maximum (in ClC(Cl)Cl): 419 nm

Structure (SMILES): F[B-]1(F)n2c(/C=C/c3ccc(C(=C(c4ccccc4)c4ccccc4)c4ccccc4)cc3)ccc2C(c2ccccc2)=C2C=CC(/C=C/c3ccc(C(=C(c4ccccc4)c4ccccc4)c4ccccc4)cc3)=[N+]21
emission maximum (in C1CCOC1): 690 nm

Structure (SMILES): CC(C)(C)c1ccc2c(c1)c1cc(C(C)(C)C)ccc1n2-c1ccc(C#Cc2ccc3c4ccc(C#Cc5ccc(-n6c7ccc(C(C)(C)C)cc7c7cc(C(C)(C)C)ccc76)cc5)cc4n(-c4ccc(C(F)(F)F)cc4)c3c2)cc1
emission maximum (in ClCCl): 431 nm

Structure (SMILES): O=C1NC(=O)c2ccc(N3CCCCC3)c3cccc1c23
emission maximum (in ClC(Cl)Cl): 517 nm

Structure (SMILES): COC(=O)c1cc(=O)n(C)c2cc(-c3cc4c5c(c3)CCCN5CCC4)sc12
emission maximum (in C1CCOC1): 502 nm | emission maximum (in CC#N): 511 nm | emission maximum (in CCO): 508 nm | emission maximum (in CN(C)C=O): 509 nm | emission maximum (in CO): 493 nm | emission maximum (in CS(C)=O): 508 nm | emission maximum (in Cc1ccccc1): 529 nm | emission maximum (in ClC(Cl)Cl): 580 nm | emission maximum (in ClCCl): 605 nm

Structure (SMILES): O=[N+]([O-])c1ccc(S(=O)(=O)Nc2ccc(C#Cc3ccc4ccc5ccc(C#Cc6ccc(NS(=O)(=O)c7ccc([N+](=O)[O-])cc7[N+](=O)[O-])cc6)c6ccc3c4c56)cc2)c([N+](=O)[O-])c1
emission maximum (in CO): 539 nm

Structure (SMILES): CCC1=[N+]2c3c(c4ccc(Oc5c(C)cc(C)cc5C)c5cc6c(Oc7c(C)cc(C)cc7C)ccc7c8cc(CC)n(c8c3c(c54)c67)[B-]2(F)F)=C1
emission maximum (in Cc1ccccc1): 924 nm

Structure (SMILES): O=P1(c2ccccc2)C(c2ccc(N(c3ccccc3)c3ccccc3)cc2)=Cc2cc3ccccc3cc21 (centres undefined)
emission maximum (in C1CCOC1): 511 nm | emission maximum (in CC#N): 561 nm | emission maximum (in CN(C)C=O): 551 nm | emission maximum (in Cc1ccccc1): 478 nm | emission maximum (in ClC(Cl)Cl): 516 nm | emission maximum (in ClCCl): 533 nm

Structure (SMILES): COc1ccc(-n2c3ccccc3c3cc(C=C(C#N)C#N)ccc32)cc1
emission maximum (in C1CCOC1): 499 nm | emission maximum (in CC#N): 536 nm | emission maximum (in CC(C)=O): 525 nm | emission maximum (in CCOC(C)=O): 495 nm | emission maximum (in CO): 534 nm | emission maximum (in CS(C)=O): 547 nm | emission maximum (in Cc1ccccc1): 450 nm | emission maximum (in ClC(Cl)Cl): 511 nm

Structure (SMILES): c1ccc(-c2nc(-c3ccc(-c4nc(-c5ccccc5)c(-c5ccccc5)[nH]4)cc3)[nH]c2-c2ccccc2)cc1
emission maximum (in C1CCOC1): 421 nm | emission maximum (in CC#N): 423.5 nm and 424 nm | emission maximum (in CC(=O)O): 482 nm | emission maximum (in CC(C)=O): 420 nm | emission maximum (in CCOC(C)=O): 420 nm | emission maximum (in CCOCC): 419 nm | emission maximum (in CO): 417 nm | emission maximum (in CS(C)=O): 410 nm | emission maximum (in ClC(Cl)Cl): 437 nm

Structure (SMILES): Fc1ccc(C2=[N+]3C(=Nc4c5ccccc5c(-c5ccc(F)cc5)n4[B-]3(F)F)c3ccccc32)cc1
emission maximum (in ClCCl): 724 nm

The remaining lines, values ahead:

emission maximum (in ClCCl): 418 nm
Structure (SMILES): COC(=O)c1c(-c2cc3ccccc3oc2=O)nn(-c2cccc(Cl)c2)c1C(=O)OC

emission maximum (in ClCCl): 450 nm
Structure (SMILES): N#Cc1ccc(/C=C/c2ncc(-c3ccccc3)o2)cc1

emission maximum (in ClCCl): 841 nm
Structure (SMILES): Cc1ccc(C2=[N+]3C(=Nc4c5ccccc5c(-c5ccc(C)s5)n4[B-]3(F)F)c3ccccc32)s1

emission maximum (in ClC(Cl)Cl): 427.35 nm
Structure (SMILES): CCCCCCn1c2cc(/C=C/c3cccs3)ccc2c2ccc(/C=C/c3cccs3)cc21

emission maximum (in CC#N): 532 nm
Structure (SMILES): Cc1ccc(-c2ccc(/C=C/c3ccc(N(C)C)cc3)cn2)nc1

emission maximum (in ClCCl): 448 nm
Structure (SMILES): CCCCn1c(-c2ccc(-c3nnc(-c4ccc5ccccc5c4)o3)cc2)nc2c3ccccc3c3ccccc3c21

emission maximum (in ClC(Cl)Cl): 475 nm
Structure (SMILES): CCN(CC)c1ccc2cc(-c3ccc(-c4ccc5ccc6c(-c7ccc(-c8cc9ccc(N(CC)CC)cc9oc8=O)cc7)ccc7ccc4c5c76)cc3)c(=O)oc2c1

emission maximum (in C1CCCCC1): 431.03 nm | emission maximum (in C1CCOC1): 448.83 nm | emission maximum (in C1COCCO1): 449.44 nm | emission maximum (in CC#N): 457.04 nm | emission maximum (in CC(C)O): 464.25 nm | emission maximum (in CCCCCC): 430.66 nm | emission maximum (in CN(C)C=O): 458.3 nm | emission maximum (in CO): 475.96 nm | emission maximum (in c1ccccc1): 444.25 nm
Structure (SMILES): CC1(C)Oc2c(c3nc4ccccc4nc3c3ccccc23)CC1Br (centres undefined)

emission maximum (in CC#N): 609 nm | emission maximum (in CN(C)C=O): 618 nm | emission maximum (in ClCCl): 612 nm
Structure (SMILES): CCN(CC)c1ccc(/C=N/C(C#N)=C(C#N)/N=C/c2ccc(N(CC)CC)cc2O)c(O)c1

emission maximum (in CC#N): 480 nm
Structure (SMILES): N#C/C(=C\c1ccc(Cl)cc1)c1nc(-c2ccccc2)cs1

emission maximum (in ClCCl): 574 nm
Structure (SMILES): COCCOCCOCCOCC(COCCOCCOCCOC)Oc1cc(/C=C/c2ccc(/C=C(\C#N)c3ccncc3)cc2)c(OC(COCCOCCOCCOC)COCCOCCOCCOC)cc1/C=C/c1ccc(/C=C(\C#N)c2ccncc2)cc1

emission maximum (in ClCCl): 464 nm
Structure (SMILES): Cc1nc(-c2cc(F)ccc2O)n2c1CCCC2

emission maximum (in C1CCOC1): 721 nm
Structure (SMILES): CCc1nc2c(nc1CC)C(c1ccccc1)=[N+]1C2=Nc2c3nc(CC)c(CC)nc3c(-c3ccccc3)n2[B-]1(F)F

emission maximum (in ClCCl): 432 nm
Structure (SMILES): CCCCN1C(=O)c2cccc3c(C#CC#Cc4ccc5c6c(cccc46)C(=O)N(CCCC)C5=O)ccc(c23)C1=O

emission maximum (in CCO): 422 nm
Structure (SMILES): CC(C)Nc1cc2oc3cc(NC(C)C)c(F)cc3c(=O)c2cc1F

emission maximum (in C1CCOC1): 571 nm | emission maximum (in CC#N): 600 nm | emission maximum (in CCO): 583 nm | emission maximum (in CCOC(C)=O): 565 nm | emission maximum (in ClCCl): 582 nm | emission maximum (in c1ccccc1): 534 nm
Structure (SMILES): CC1(C)CC(/C=C/c2ccc(-n3c4ccccc4c4ccccc43)cc2)=CC(=C(C#N)C#N)C1

emission maximum (in CCO): 520 nm | emission maximum (in ClCCl): 464 nm
Structure (SMILES): N#Cc1ncc(-c2c3ccccc3c(-c3cnc(C#N)nc3)c3ccccc23)cn1

emission maximum (in C1CCOC1): 443 nm
Structure (SMILES): CC(C)(C)c1ccc(-c2c(-c3ccc(N(c4ccccc4)c4ccccc4)cc3)c(C#N)c(-c3ccc(N(c4ccccc4)c4ccccc4)cc3)c(-c3ccc(C(C)(C)C)cc3)c2-c2ccc(C(C)(C)C)cc2)cc1
